# Test results: US12539292B2, “BRM targeting compounds and associated methods of use” (Arvinas Operations, Inc., priority 2018, dated 2026)
# Read-outs that look alike come from different tables or passages of the source.
# Biological target: T1, BRM (Homo sapiens, UniProt P51531)
# T1 construct: In-Cell Western Screen of BRM Degradation in SW1573 Cells; endogenous in cells; host or cells: SW1573
# Assay: In-cell Western screen of BRM degradation in SW1573 cells (Dmax and DC50)
# Format: cell-based
# How it was run: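 Near-infrared imaging on a LI-COR Odyssey (800 and 680 nm channels) quantifies BRM remaining in fixed SW1573 cells. Cells are dosed for 18-20 h at 0.1% final DMSO, and degradation is expressed as Dmax and DC50.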
# [1] = BRM degradation, SW1573 cells, read-out: DC50
# [2] = BRM degradation, SW1573 cells, when tested at the top concentration of between 0.3 and 10 μM, read-out: Dmax (%) (% degraded)
# [3] = BRM degradation, SW1573 cells, tested at the top concentration of between 0.3 and 10 μM, read-out: Dmax (%) (% degraded)
# [4] = SW1573, % degraded, when tested at the top concentration of between 0.3 and 10 μM, read-out: BRM Dmax (%)
# [5] = target protein degradation, read-out: BRM DC50
# T1 sequence (P51531 whole entry): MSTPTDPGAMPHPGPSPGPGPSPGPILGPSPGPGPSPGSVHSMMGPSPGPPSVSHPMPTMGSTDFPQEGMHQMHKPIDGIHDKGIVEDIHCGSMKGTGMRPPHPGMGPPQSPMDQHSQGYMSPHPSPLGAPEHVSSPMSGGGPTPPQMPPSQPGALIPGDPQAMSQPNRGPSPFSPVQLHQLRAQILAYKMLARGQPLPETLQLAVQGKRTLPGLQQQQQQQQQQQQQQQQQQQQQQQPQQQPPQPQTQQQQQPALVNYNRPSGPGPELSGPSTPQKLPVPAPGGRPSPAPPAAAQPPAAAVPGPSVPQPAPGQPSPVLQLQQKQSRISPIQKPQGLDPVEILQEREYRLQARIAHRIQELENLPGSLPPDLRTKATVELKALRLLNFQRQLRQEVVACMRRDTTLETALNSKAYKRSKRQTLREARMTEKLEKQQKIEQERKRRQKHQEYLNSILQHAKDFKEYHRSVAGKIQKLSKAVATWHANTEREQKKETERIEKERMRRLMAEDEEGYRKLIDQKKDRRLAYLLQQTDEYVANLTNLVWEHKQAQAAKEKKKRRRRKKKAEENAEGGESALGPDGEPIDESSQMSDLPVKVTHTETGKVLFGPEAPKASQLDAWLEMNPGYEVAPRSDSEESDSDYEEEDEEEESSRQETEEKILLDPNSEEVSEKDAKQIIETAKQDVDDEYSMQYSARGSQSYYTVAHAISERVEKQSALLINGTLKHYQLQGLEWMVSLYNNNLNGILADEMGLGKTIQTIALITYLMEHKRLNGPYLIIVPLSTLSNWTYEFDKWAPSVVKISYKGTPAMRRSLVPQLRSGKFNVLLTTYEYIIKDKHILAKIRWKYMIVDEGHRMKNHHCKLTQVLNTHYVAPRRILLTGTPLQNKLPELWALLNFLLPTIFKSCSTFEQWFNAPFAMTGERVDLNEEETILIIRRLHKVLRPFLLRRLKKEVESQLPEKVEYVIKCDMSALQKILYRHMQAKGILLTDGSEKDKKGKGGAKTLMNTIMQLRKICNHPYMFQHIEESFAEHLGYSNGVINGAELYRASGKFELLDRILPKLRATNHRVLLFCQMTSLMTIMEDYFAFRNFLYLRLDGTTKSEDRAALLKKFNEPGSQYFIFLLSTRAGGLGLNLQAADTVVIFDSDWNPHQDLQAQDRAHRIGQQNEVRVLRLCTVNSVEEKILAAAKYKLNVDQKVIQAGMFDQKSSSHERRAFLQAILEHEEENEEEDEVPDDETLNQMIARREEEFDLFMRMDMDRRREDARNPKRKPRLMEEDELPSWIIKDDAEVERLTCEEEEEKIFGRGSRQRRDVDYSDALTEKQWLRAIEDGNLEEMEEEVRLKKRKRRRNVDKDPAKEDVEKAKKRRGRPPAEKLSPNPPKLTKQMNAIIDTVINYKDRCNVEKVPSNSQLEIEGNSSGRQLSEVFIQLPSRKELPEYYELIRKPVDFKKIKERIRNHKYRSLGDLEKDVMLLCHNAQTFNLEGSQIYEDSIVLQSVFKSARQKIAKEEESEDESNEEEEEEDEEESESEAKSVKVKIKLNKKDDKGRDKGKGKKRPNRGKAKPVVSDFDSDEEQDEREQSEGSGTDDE
structure (smiles),measurement,setting,value
"Cc1ncsc1-c1ccc(CNC(=O)[C@@H]2C[C@@H](O)CN2C(=O)[C@H](c2cc(OCCOCCOCCOCCn3cc(-c4cc(-c5ccccc5O)nnc4N)cn3)no2)C(C)C)cc1 [compound 16, (2S,4R)-1-((S)-2-(3-(2-(2-(2-(2-(4-(3-amino-6-(2-hydroxyphenyl)pyridazin-4-yl)-1H-pyrazol-1-yl)ethoxy)ethoxy)ethoxy)ethoxy)isoxazol-5-yl)-3-methylbutanoyl)-4-hydroxy-N-(4-(4-methylthiazol-5-yl)benzyl)pyrrolidine-2-carboxamide]",DC50,[1],> 30 nM
same,Dmax,[2],50 to 75%
"Cc1ncsc1-c1ccc([C@H](C)NC(=O)[C@@H]2C[C@@H](O)CN2C(=O)[C@@H](NC(=O)COC2CN(CCN3CCN(CCCc4cc(N5C6CCC5CN(c5cc(-c7ccccc7O)nnc5N)C6)ccn4)CC3)C2)C(C)(C)C)cc1 [compound 49, (2S,4R)-1-((2S)-2-(2-((1-(2-(4-(3-(4-(3-(3-amino-6-(2-hydroxyphenyl)pyridazin-4-yl)-3,8-diazabicyclo[3.2.1]octan-8-yl)pyridin-2-yl)propyl)piperazin-1-yl)ethyl)azetidin-3-yl)oxy)acetamido)-3,3-dimethylbutanoyl)-4-hydroxy-N-((S)-1-(4-(4-methylthiazol-5-yl)phenyl)ethyl)pyrrolidine-2-carboxamide]",DC50,[1],> 30 nM
same,Dmax,[2],50 to 75%
"Cc1ncsc1-c1ccc([C@H](C)NC(=O)[C@@H]2C[C@@H](O)CN2C(=O)[C@H](c2cc(OCCOCCOCCCCN3CCC4(CCN(c5cc(-c6ccccc6O)nnc5N)CC4)C3)no2)C(C)C)cc1 [compound 73, (2S,4R)-1-((S)-2-(3-(2-(2-(4-(8-(3-amino-6-(2-hydroxyphenyl)pyridazin-4-yl)-2,8-diazaspiro[4.5]decan-2-yl)butoxy)ethoxy)ethoxy)isoxazol-5-yl)-3-methylbutanoyl)-4-hydroxy-N-((S)-1-(4-(4-methylthiazol-5-yl)phenyl)ethyl)pyrrolidine-2-carboxamide]",DC50,[1],> 30 nM
"Cc1ncsc1-c1ccc(CNC(=O)[C@@H]2C[C@@H](O)CN2C(=O)[C@@H](c2cc(OCCN3CCC(O[C@H]4C[C@H](Oc5cc(N6C7CCC6CN(c6cc(-c8ccccc8O)nnc6N)C7)ccn5)C4)CC3)no2)C(C)C)c(C#N)c1 [compound 225, (2S,4R)-1-((2R)-2-(3-(2-(4-((1r,3R)-3-((4-(3-(3-amino-6-(2-hydroxyphenyl)pyridazin-4-yl)-3,8-diazabicyclo[3.2.1]octan-8-yl)pyridin-2-yl)oxy)cyclobutoxy)piperidin-1-yl)ethoxy)isoxazol-5-yl)-3-methylbutanoyl)-N-(2-cyano-4-(4-methylthiazol-5-yl)benzyl)-4-hydroxypyrrolidine-2-carboxamide]",DC50,[1],< 2.5 nM
same,Dmax,[3],> 75%
"Cc1ncsc1-c1ccc([C@H](C)NC(=O)[C@@H]2C[C@@H](O)CN2C(=O)[C@@H](c2cc(N3CC(COCCOc4cc(N5C6CCC5CN(c5cc(-c7ccccc7O)nnc5N)C6)ccn4)C3)no2)C(C)C)cc1 [compound 550, (2S,4R)-1-((2R)-2-(3-(3-((2-((4-(3-(3-amino-6-(2-hydroxyphenyl)pyridazin-4-yl)-3,8-diazabicyclo[3.2.1]octan-8-yl)pyridin-2-yl)oxy)ethoxy)methyl)azetidin-1-yl)isoxazol-5-yl)-3-methylbutanoyl)-4-hydroxy-N-((S)-1-(4-(4-methylthiazol-5-yl)phenyl)ethyl)pyrrolidine-2-carboxamide]",Dmax,"BRM degradation, SW1573 cells, Table 2D, read-out: **Dmax (%) (% degraded)",> 75%
same,DC50,"BRM degradation, SW1573 cells, Table 2D, read-out: *DC50",< 2.5 nM
"COCc1ncsc1-c1ccc([C@H](C)NC(=O)[C@@H]2C[C@@H](O)CN2C(=O)[C@@H](c2cc(OCCN3CCC(O[C@H]4C[C@H](Oc5cc(N6C7CCC6CN(c6cc(-c8ccccc8O)nnc6N)C7)ccn5)C4)CC3)no2)C(C)C)cc1 [compound 185, (2S,4R)-1-((2R)-2-(3-(2-(4-((1r,3R)-3-((4-(3-(3-amino-6-(2-hydroxyphenyl)pyridazin-4-yl)-3,8-diazabicyclo[3.2.1]octan-8-yl)pyridin-2-yl)oxy)cyclobutoxy)piperidin-1-yl)ethoxy)isoxazol-5-yl)-3-methylbutanoyl)-4-hydroxy-N-((S)-1-(4-(4-(methoxymethyl)thiazol-5-yl)phenyl)ethyl)pyrrolidine-2-carboxamide]",DC50,[1],< 2.5 nM
same,Dmax,[3],> 75%
"Cc1ncsc1-c1ccc([C@H](C)NC(=O)[C@@H]2C[C@@H](O)CN2C(=O)[C@H](c2cc(OCCC3CCN(C[C@H]4C[C@H](Oc5cc(N6C7CCC6CN(c6cc(-c8ccccc8O)nnc6N)C7)ccn5)C4)CC3)no2)C(C)C)cn1 [compound 287, (2S,4R)-1-((2S)-2-(3-(2-(1-(((1r,3S)-3-((4-(3-(3-amino-6-(2-hydroxyphenyl)pyridazin-4-yl)-3,8-diazabicyclo[3.2.1]octan-8-yl)pyridin-2-yl)oxy)cyclobutyl)methyl)piperidin-4-yl)ethoxy)isoxazol-5-yl)-3-methylbutanoyl)-4-hydroxy-N-((S)-1-(6-(4-methylthiazol-5-yl)pyridin-3-yl)ethyl)pyrrolidine-2-carboxamide]",DC50,[1],> 30 nM
"Cc1ncsc1-c1ccc([C@H](C)NC(=O)[C@@H]2C[C@@H](OP(=O)(O)O)CN2C(=O)[C@@H](c2cc(OCCN3CCC(O[C@H]4C[C@H](Oc5cc(N6C7CCC6CN(c6cc(-c8ccccc8O)nnc6N)C7)ccn5)C4)CC3)no2)C(C)C)cc1 [compound 459, (3R,5S)-1-((2R)-2-(3-(2-(4-((1r,3R)-3-((4-(3-(3-amino-6-(2-hydroxyphenyl)pyridazin-4-yl)-3,8-diazabicyclo[3.2.1]octan-8-yl)pyridin-2-yl)oxy)cyclobutoxy)piperidin-1-yl)ethoxy)isoxazol-5-yl)-3-methylbutanoyl)-5-(((S)-1-(4-(4-methylthiazol-5-yl)phenyl)ethyl)carbamoyl)pyrrolidin-3-yl dihydrogen phosphate]",Dmax,[4],> 75%
same,DC50,[5],< 2.5 nM
"Cc1ncsc1-c1ccc([C@H](C)NC(=O)[C@@H]2C[C@@H](O)CN2C(=O)[C@H](c2cc(N3CCC(O)(CN4CCC(O[C@H]5C[C@H](Oc6cc(N7C8CCC7CN(c7cc(-c9ccccc9O)nnc7N)C8)ccn6)C5)CC4)CC3)no2)C(C)C)cc1 [compound 641, (2S,4R)-1-((2S)-2-(3-(4-((4-((1r,3r)-3-((4-(3-(3-amino-6-(2-hydroxyphenyl)pyridazin-4-yl)-3,8-diazabicyclo[3.2.1]octan-8-yl)pyridin-2-yl)oxy)cyclobutoxy)piperidin-1-yl)methyl)-4-hydroxypiperidin-1-yl)isoxazol-5-yl)-3-methylbutanoyl)-4-hydroxy-N-((S)-1-(4-(4-methylthiazol-5-yl)phenyl)ethyl)pyrrolidine-2-carboxamide]",DC50,[1],> 30 nM
"Cc1n[nH]c(C)c1-c1ccc([C@H](C)NC(=O)[C@@H]2C[C@@H](O)CN2C(=O)[C@@H](c2cc(OCCN3CCC(O[C@H]4C[C@H](Oc5cc(N6C7CCC6CN(c6cc(-c8ccccc8O)nnc6N)C7)ccn5)C4)CC3)no2)C(C)C)cc1 [compound 378, (2S,4R)-1-((2R)-2-(3-(2-(4-((1r,3R)-3-((4-(3-(3-amino-6-(2-hydroxyphenyl)pyridazin-4-yl)-3,8-diazabicyclo[3.2.1]octan-8-yl)pyridin-2-yl)oxy)cyclobutoxy)piperidin-1-yl)ethoxy)isoxazol-5-yl)-3-methylbutanoyl)-N-((S)-1-(4-(3,5-dimethyl-1H-pyrazol-4-yl)phenyl)ethyl)-4-hydroxypyrrolidine-2-carboxamide]",Dmax,[4],> 75%
same,DC50,[5],< 2.5 nM
"Cc1ncsc1-c1ccc([C@H](CN(C)C)NC(=O)[C@@H]2C[C@@H](O)CN2C(=O)[C@H](c2cc(OCCN3CCN(CCOc4cc(N5C6CCC5CN(c5cc(-c7ccccc7O)nnc5N)C6)ccn4)CC3)no2)C(C)C)cc1 [compound 280, (2S,4R)-1-((2S)-2-(3-(2-(4-(2-((4-(3-(3-amino-6-(2-hydroxyphenyl)pyridazin-4-yl)-3,8-diazabicyclo[3.2.1]octan-8-yl)pyridin-2-yl)oxy)ethyl)piperazin-1-yl)ethoxy)isoxazol-5-yl)-3-methylbutanoyl)-N-((R)-2-(dimethylamino)-1-(4-(4-methylthiazol-5-yl)phenyl)ethyl)-4-hydroxypyrrolidine-2-carboxamide]",DC50,[1],> 30 nM
"Cc1ncsc1-c1ccc([C@H](CCC#N)NC(=O)[C@@H]2C[C@@H](O)CN2C(=O)[C@@H](c2cc(N3CCC(CN4CCC(O[C@H]5C[C@H](Oc6cc(N7C8CCC7CN(c7cc(-c9ccccc9O)nnc7N)C8)ccn6)C5)CC4)CC3)no2)C(C)C)cc1 [compound 672, (2S,4R)-1-((2R)-2-(3-(4-((4-((1r,3r)-3-((4-(3-(3-amino-6-(2-hydroxyphenyl)pyridazin-4-yl)-3,8-diazabicyclo[3.2.1]octan-8-yl)pyridin-2-yl)oxy)cyclobutoxy)piperidin-1-yl)methyl)piperidin-1-yl)isoxazol-5-yl)-3-methylbutanoyl)-N-((S)-3-cyano-1-(4-(4-methylthiazol-5-yl)phenyl)propyl)-4-hydroxypyrrolidine-2-carboxamide]",DC50,[1],< 2.5 nM
same,Dmax,"BRM degradation, SW1573 cells, read-out: Dmax (% degraded)",> 75%
"Cc1ncsc1-c1ccc([C@H](C)NC(=O)[C@@H]2C[C@@H](O)CN2C(=O)[C@H](c2cc(OCCC3CCN(C(=O)[C@H]4C[C@H](CN5CCC([C@@H](C)n6cc(-c7cc(-c8ccccc8O)nnc7N)cn6)CC5)C4)CC3)no2)C(C)C)cc1 [compound 455, (2S,4R)-1-((S)-2-(3-(2-(1-((1R,3S)-3-((4-((R)-1-(4-(3-amino-6-(2-hydroxyphenyl)pyridazin-4-yl)-1H-pyrazol-1-yl)ethyl)piperidin-1-yl)methyl)cyclobutane-1-carbonyl)piperidin-4-yl)ethoxy)isoxazol-5-yl)-3-methylbutanoyl)-4-hydroxy-N-((S)-1-(4-(4-methylthiazol-5-yl)phenyl)ethyl)pyrrolidine-2-carboxamide]",Dmax,[4],> 75%
same,DC50,[5],< 2.5 nM
